The NIST ThermoML archive (doi:10.1021/acs.jced.8b00979)
± gives the expanded uncertainty stated by the source.

Assay: xn = mol fraction of the nth substance listed
Settings: 100 kPa, Liquid; for viscosity: Capillary tube (Ostwald / Ubbelohde) method; for mass density: Vibrating tube method

Molecule `CCC(C)CO` (stereo not given) [2-methyl-1-butanol] + CCCC(C)O has a viscosity (288.15 K, x2 = 0) of 6.439 ± 0.26 mPa·s, a viscosity (288.15 K, x2 = 0.1) of 6.154 ± 0.25 mPa·s and a viscosity (288.15 K, x2 = 0.2) of 5.978 ± 0.24 mPa·s. It also gave a viscosity (288.15 K, x2 = 0.301) of 5.83 ± 0.23 mPa·s, a viscosity (288.15 K, x2 = 0.4) of 5.687 ± 0.23 mPa·s and a viscosity (288.15 K, x2 = 0.5) of 5.556 ± 0.22 mPa·s. The viscosity (288.15 K, x2 = 0.6) was 5.435 ± 0.22 mPa·s, the viscosity (288.15 K, x2 = 0.7) was 5.323 ± 0.21 mPa·s and the viscosity (288.15 K, x2 = 0.8) was 5.232 ± 0.21 mPa·s. It also gave a viscosity (288.15 K, x2 = 0.9) of 5.154 ± 0.21 mPa·s, a mass density (288.15 K, x2 = 0) of 823.35 ± 0.8 kg/m3 and a mass density (288.15 K, x2 = 0.1) of 822.37 ± 0.8 kg/m3. For the same molecule, the mass density (288.15 K, x2 = 0.2) was 821.39 ± 0.8 kg/m3, the mass density (288.15 K, x2 = 0.301) was 820.41 ± 0.79 kg/m3 and the mass density (288.15 K, x2 = 0.4) was 819.44 ± 0.79 kg/m3. It also gave a mass density (288.15 K, x2 = 0.5) of 818.45 ± 0.79 kg/m3, a mass density (288.15 K, x2 = 0.6) of 817.47 ± 0.79 kg/m3 and a mass density (288.15 K, x2 = 0.7) of 816.47 ± 0.79 kg/m3. The mass density (288.15 K, x2 = 0.8) was 815.45 ± 0.79 kg/m3, the mass density (288.15 K, x2 = 0.9) was 814.4 ± 0.79 kg/m3 and the viscosity (293.15 K, x2 = 0) was 5.3 ± 0.21 mPa·s. For the same molecule, the viscosity (293.15 K, x2 = 0.1) was 5.034 ± 0.2 mPa·s, the viscosity (293.15 K, x2 = 0.2) was 4.881 ± 0.2 mPa·s and the viscosity (293.15 K, x2 = 0.301) was 4.762 ± 0.19 mPa·s. The viscosity (293.15 K, x2 = 0.4) was 4.649 ± 0.19 mPa·s, the viscosity (293.15 K, x2 = 0.5) was 4.548 ± 0.18 mPa·s and the viscosity (293.15 K, x2 = 0.6) was 4.459 ± 0.18 mPa·s. It also gave a viscosity (293.15 K, x2 = 0.7) of 4.377 ± 0.18 mPa·s, a viscosity (293.15 K, x2 = 0.8) of 4.314 ± 0.17 mPa·s and a viscosity (293.15 K, x2 = 0.9) of 4.251 ± 0.17 mPa·s. For the same molecule, the mass density (293.15 K, x2 = 0) was 819.64 ± 0.79 kg/m3, the mass density (293.15 K, x2 = 0.1) was 818.65 ± 0.79 kg/m3 and the mass density (293.15 K, x2 = 0.2) was 817.65 ± 0.79 kg/m3. It also gave a mass density (293.15 K, x2 = 0.301) of 816.65 ± 0.79 kg/m3, a mass density (293.15 K, x2 = 0.4) of 815.65 ± 0.79 kg/m3 and a mass density (293.15 K, x2 = 0.5) of 814.64 ± 0.79 kg/m3. It also gave a mass density (293.15 K, x2 = 0.6) of 813.63 ± 0.79 kg/m3, a mass density (293.15 K, x2 = 0.7) of 812.6 ± 0.79 kg/m3 and a mass density (293.15 K, x2 = 0.8) of 811.57 ± 0.79 kg/m3. It also gave a mass density (293.15 K, x2 = 0.9) of 810.5 ± 0.79 kg/m3, a viscosity (298.15 K, x2 = 0) of 4.501 ± 0.18 mPa·s and a viscosity (298.15 K, x2 = 0.1) of 4.249 ± 0.17 mPa·s. It also gave a viscosity (298.15 K, x2 = 0.2) of 4.106 ± 0.17 mPa·s, a viscosity (298.15 K, x2 = 0.301) of 3.99 ± 0.16 mPa·s and a viscosity (298.15 K, x2 = 0.4) of 3.882 ± 0.16 mPa·s. For the same molecule, the viscosity (298.15 K, x2 = 0.5) was 3.787 ± 0.15 mPa·s, the viscosity (298.15 K, x2 = 0.6) was 3.703 ± 0.15 mPa·s and the viscosity (298.15 K, x2 = 0.7) was 3.625 ± 0.15 mPa·s. The viscosity (298.15 K, x2 = 0.8) was 3.564 ± 0.14 mPa·s, the viscosity (298.15 K, x2 = 0.9) was 3.496 ± 0.14 mPa·s and the mass density (298.15 K, x2 = 0) was 815.85 ± 0.79 kg/m3. The mass density (298.15 K, x2 = 0.1) was 814.84 ± 0.79 kg/m3, the mass density (298.15 K, x2 = 0.2) was 813.83 ± 0.79 kg/m3 and the mass density (298.15 K, x2 = 0.301) was 812.81 ± 0.79 kg/m3. For the same molecule, the mass density (298.15 K, x2 = 0.4) was 811.79 ± 0.79 kg/m3, the mass density (298.15 K, x2 = 0.5) was 810.75 ± 0.79 kg/m3 and the mass density (298.15 K, x2 = 0.6) was 809.72 ± 0.79 kg/m3. The mass density (298.15 K, x2 = 0.7) was 808.68 ± 0.78 kg/m3, the mass density (298.15 K, x2 = 0.8) was 807.63 ± 0.78 kg/m3 and the mass density (298.15 K, x2 = 0.9) was 806.54 ± 0.78 kg/m3. It also gave a viscosity (303.15 K, x2 = 0) of 3.825 ± 0.15 mPa·s, a viscosity (303.15 K, x2 = 0.1) of 3.585 ± 0.14 mPa·s and a viscosity (303.15 K, x2 = 0.2) of 3.46 ± 0.14 mPa·s. The viscosity (303.15 K, x2 = 0.301) was 3.355 ± 0.14 mPa·s, the viscosity (303.15 K, x2 = 0.4) was 3.253 ± 0.13 mPa·s and the viscosity (303.15 K, x2 = 0.5) was 3.163 ± 0.13 mPa·s. It also gave a viscosity (303.15 K, x2 = 0.6) of 3.093 ± 0.12 mPa·s, a viscosity (303.15 K, x2 = 0.7) of 3.028 ± 0.12 mPa·s and a viscosity (303.15 K, x2 = 0.8) of 2.973 ± 0.12 mPa·s. For the same molecule, the viscosity (303.15 K, x2 = 0.9) was 2.91 ± 0.12 mPa·s, the mass density (303.15 K, x2 = 0) was 812.12 ± 0.79 kg/m3 and the mass density (303.15 K, x2 = 0.1) was 811.09 ± 0.79 kg/m3. It also gave a mass density (303.15 K, x2 = 0.2) of 810.04 ± 0.79 kg/m3, a mass density (303.15 K, x2 = 0.301) of 808.98 ± 0.78 kg/m3 and a mass density (303.15 K, x2 = 0.4) of 807.92 ± 0.78 kg/m3. It also gave a mass density (303.15 K, x2 = 0.5) of 806.85 ± 0.78 kg/m3, a mass density (303.15 K, x2 = 0.6) of 805.78 ± 0.78 kg/m3 and a mass density (303.15 K, x2 = 0.7) of 804.7 ± 0.78 kg/m3. It also gave a mass density (303.15 K, x2 = 0.8) of 803.62 ± 0.78 kg/m3, a mass density (303.15 K, x2 = 0.9) of 802.49 ± 0.78 kg/m3 and a viscosity (308.15 K, x2 = 0) of 3.265 ± 0.13 mPa·s. The viscosity (308.15 K, x2 = 0.1) was 3.047 ± 0.12 mPa·s, the viscosity (308.15 K, x2 = 0.2) was 2.928 ± 0.12 mPa·s and the viscosity (308.15 K, x2 = 0.301) was 2.83 ± 0.11 mPa·s. For the same molecule, the viscosity (308.15 K, x2 = 0.4) was 2.735 ± 0.11 mPa·s, the viscosity (308.15 K, x2 = 0.5) was 2.653 ± 0.11 mPa·s and the viscosity (308.15 K, x2 = 0.6) was 2.589 ± 0.11 mPa·s. It also gave a viscosity (308.15 K, x2 = 0.7) of 2.53 ± 0.1 mPa·s, a viscosity (308.15 K, x2 = 0.8) of 2.482 ± 0.1 mPa·s and a viscosity (308.15 K, x2 = 0.9) of 2.422 ± 0.098 mPa·s.
